In the experiment the test system is C. albicans CaCi-8 + fluconazole, Alamar Blue growth, 48 h. Briefly: resistant C. albicans growth inhibition with fluconazole, dose response, CaCi-8 strain, Alamar Blue fluorescence (AID 2423). On the technique in general: The colour change of resazurin is a common sign of viable cells or microbes.

Inconclusive results are not listed. Activity calls are given as the source filed them. How the calls were made is not given here.

As usually defined, the EC50 is the midpoint of the concentration-response curve. Take `Cc1ccc(C(=O)Nc2cccc(-c3cn4ccccc4n3)c2)cc1`: the concentration giving a half-maximal response (EC50) was 326 nM.

For `CN1CCN(C(=O)c2cnn(-c3ccccc3)c2NC(=O)c2ccccc2)CC1`, the EC50 was > 15000 nM (inactive).

For `CCn1c(/C=C/c2ccc([N+](=O)[O-])o2)nc2ccccc2c1=O`, the EC50 was < 120 nM.

On to `C=CCn1c(O)c(N=NC(=S)Nc2ccc(OC)cc2)c2ccccc21`, for which the EC50 is 7700 nM.

On to `C/C(=N\NC(=O)CCC(=O)Nc1ccc(C)c(C)c1)C1CC1`, for which the EC50 was > 15000 nM (inactive).

Take `O=C(CSc1nc(-c2ccccc2)cs1)Nc1nccs1`: the EC50 was > 16000 nM (inactive).

As to `Cc1cc(Sc2ncnc(N)c2[N+](=O)[O-])ncn1`, the EC50 was 659 nM.

As for `CCCCCCOC(=O)C[N+](C)(C)CCOC1CC2CCC1(C)C2(C)C` (stereo not drawn), the concentration for a half-maximal effect (EC50) was 1160 nM.

With `O=C(Cc1nc2ccccc2s1)c1ccc(O)cc1O`, the concentration for a half-maximal effect (EC50) was 2860 nM.

On to `COc1ccc(-n2cc(-c3ccc(C)cc3)[n+]3c2SCC3)cc1`, for which the EC50 was 2940 nM.

In the case of `COc1cccc2c(SCC(=O)N/N=C/c3ccc(O)c(O)c3)cc(C)nc12`, the EC50 is > 16000 nM (inactive).

Consider `CCCCC(=O)NC(c1ccc(N(C)C)cc1)c1ccc2cccnc2c1O` (stereo not drawn), for which the EC50 is 707 nM.

`CCOc1cc(-c2nc(-c3cc(OC)c(OC)c(OC)c3)no2)cc(OCC)c1OCC`: the EC50 is > 16000 nM (inactive).

In the case of `N=C(N)c1ccc(/C=C/c2ccc(C(=N)N)cc2O)cc1`, the EC50 is > 15000 nM (inactive).

On to `COc1cccc(/C=N/NC(=O)c2[nH]nc3c2CCc2ccccc2-3)c1O`, for which the EC50 is 857 nM.

As for `Cc1cc(Nc2ccc(Cl)cc2)nc(NCc2ccccc2)n1`, the EC50 was 5160 nM.

For `O=C(NCc1ccco1)c1sc(=S)n2c1[nH]c(=O)c1ccccc12`, the EC50 was 212 nM.

Regarding `O=C(Oc1c(Cl)cc(Cl)c2cccnc12)c1cccs1`, the EC50 is 443 nM.

As for `CC[n+]1c(/C=C/N(C)c2ccccc2)n(-c2ccccc2)c2ccc(-c3nc4ccccc4s3)cc21`, the EC50 is 1200 nM.

With `O=C(c1cc2ccccc2cc1O)N1CCN(c2ccccc2O)CC1`, the concentration giving a half-maximal response (EC50) was 209 nM.

`Cc1ccc(O)c(N=Cc2cc(Cc3ccccc3)cc([N+](=O)[O-])c2O)c1`: the concentration giving a half-maximal response (EC50) was 13700 nM.

As to `Cc1cccc(/C=C/C(=O)c2cc(Br)ccc(=O)c2O)c1`, the EC50 was 987 nM.

Take `CCC(C)(C)c1ccc(OCCCC[n+]2ccc(C)cc2)c(C(C)(C)CC)c1`: the EC50 is > 16000 nM (inactive).

For `O=C(N/N=C\c1c(O)ccc2ccccc12)c1ccc(S(=O)(=O)N2CCCCC2)cc1`, the EC50 was 279 nM.

`Cc1ccc(C(=O)O/N=C/c2c(N3CCOCC3)n(C)c3ccccc23)cc1`: the EC50 is 623 nM.

Consider `O=C(Nc1nnc(C2COc3ccccc3O2)o1)c1ccc(F)cc1` (stereo not drawn), for which the EC50 was 910 nM.

Regarding `C=CCc1c(C)c(C#N)c2nc3ccccc3n2c1NCCN(C)C`, the EC50 was 896 nM.

In the case of `COC1=CC(=O)C(O)=C(CCCCCCC/C=C/CCCCCCCC2=C(O)C(=O)C=C(OC)C2=O)C1=O`, the EC50 was 11900 nM.

As for `OCCCNc1cc(-c2ccnc(Nc3cccc(Cl)c3)n2)ccn1`, the 50% effective concentration (EC50) was 939 nM.

In the case of `CC(C)C(=O)NC(c1cccs1)c1cc([N+](=O)[O-])c2cccnc2c1O` (stereo not drawn), the EC50 is 778 nM.

Consider `COc1ccc(-c2nn(-c3ccccc3)cc2/C=N/NC(=S)NC(C)C)cc1OC`, for which the EC50 was 1890 nM.

With `C[C@@H]1C[C@@H]2O[C@H]2/C=C\C=C\C(=O)Cc2c(Cl)c(O)cc(O)c2C(=O)O1`, the EC50 is 234 nM.

Take `CC(=O)Nc1cccc(NC(=O)Nc2cccc(F)c2)c1`: the EC50 was > 15000 nM (inactive).

For the molecule `COc1ccc(CCn2c(C)cc3c(c2=O)C(c2ccc4c(c2)OCO4)C(C#N)=C(N)O3)cc1OC` (stereo not drawn), the EC50 was > 16000 nM (inactive).

`Cc1ccc(C(=O)CC(=O)c2ccccc2C)c(O)c1`: the EC50 is 1900 nM.

Regarding `S=C(Nc1ccccc1)Nc1nc2ccccc2n1CCOc1ccc(Cl)cc1`, the EC50 was 962 nM.

`O=C(Nc1ccccc1N1CCOCC1)c1cc(F)cc(F)c1`: the EC50 is 2660 nM.

Turning to `O=C(Nc1nnc(-c2ccc(F)cc2)o1)c1cccc([N+](=O)[O-])c1`, the EC50 is 1010 nM.

As to `COCCNC(=O)CCCn1c(=O)c2cc(OC)c(OC)cc2n(CC(=O)NCCC2=CCCCC2)c1=O`, the 50% effective concentration (EC50) is 5380 nM.

Take `O=C(NCc1cccnc1)c1ccc(-c2cccc(Cl)c2Cl)o1`: the EC50 is 1760 nM.

As to `O=C(N/N=C/c1c(O)ccc2ccccc12)c1cccnc1`, the EC50 was 1430 nM.

Consider `COc1ccccc1NC(c1cccnc1)c1ccc2cccnc2c1O` (stereo not drawn), for which the half-maximal effective concentration (EC50) is 14900 nM.

On to `Cc1cc(NC(=O)c2ccc([N+](=O)[O-])o2)ccc1NC(=O)c1ccco1`, for which the EC50 is 338 nM.

`CCCCn1c(=O)[nH]c(=O)c2c1nc(-c1ccc(-c3ccccc3Br)o1)n2CC`: the EC50 was > 15000 nM (inactive).

Take `O=C(N/N=C/c1cc(Br)cc(Cl)c1O)c1ccc2c(c1)OCO2`: the concentration for a half-maximal effect (EC50) was 2750 nM.

On to `CCOC(=O)c1sc(Nc2nc3c(OC)cccc3s2)nc1C`, for which the EC50 is 1950 nM.

`Cn1cccc1-c1cc(C(=O)N2CCc3c([nH]c4ccccc34)C2c2ccccn2)[nH]n1` (stereo not drawn): the concentration giving a half-maximal response (EC50) was 741 nM.

Consider `CCOc1ccc(/C=C/C2=CC(C)(C)NC(=S)N2)cc1`, for which the EC50 is 1160 nM.

In the case of `CC1CCCCN1S(=O)(=O)c1ccc(NC(=O)c2cccc(-n3cnnn3)c2)cc1` (stereo not drawn), the EC50 was > 15000 nM (inactive).

With `COc1ccc(C(=O)N2c3ccccc3C=CC2C#N)cc1` (stereo not drawn), the 50% effective concentration (EC50) is 1760 nM.

As for `CCOc1cccc(-c2cc(-c3n[nH]c(=S)n3CC)c3ccccc3n2)c1`, the 50% effective concentration (EC50) was 4000 nM.

As for `COc1ccc(N(CC(=O)Nc2ccccc2C(N)=O)S(=O)(=O)c2ccc(C)c([N+](=O)[O-])c2)cc1`, the EC50 was 319 nM.

`O=C(NNC1=C(C(=O)C(F)(F)F)CCC1)c1ccc(Br)cc1`: the EC50 was 790 nM.

Regarding `CCCNC(=O)c1ccc2c(=O)c(O)c(-c3ccc(OC)cc3)[nH]c2c1`, the EC50 was 2470 nM.

On to `O=C(COc1ccc(Cl)cc1)NC1CCSC1=O` (stereo not drawn), for which the EC50 is > 16000 nM (inactive).

As for `O=C(Oc1c(Cl)cc(Cl)c2cccnc12)c1ccco1`, the EC50 is 465 nM.

On to `CCCCn1c(SCC(=O)Nc2cccc(OC)c2)nc2ccc(N3CCOCC3)cc2c1=O`, for which the EC50 was 3630 nM.

On to `CCN(CC)c1ccc(/C=N/Nc2nc3ccccc3[nH]2)c(O)c1`, for which the EC50 was 621 nM.

As for `C/C(CC(=O)Nc1cc(C)ccn1)=N\NC(=O)c1cccc(C)c1O`, the EC50 is > 16000 nM (inactive).

As to `CCCC(=O)NC(c1ccc(N(C)C)cc1)c1ccc2cccnc2c1O` (stereo not drawn), the EC50 is 627 nM.

As to `CC(=O)Nc1ccc(NC(=O)CCCN2C(=O)c3ccccc3C2=O)cc1`, the EC50 is > 15000 nM (inactive).

As to `CC1(O)CC(c2ccc(Cl)cc2)=NN1C(=O)c1ccc([N+](=O)[O-])cc1` (stereo not drawn), the EC50 is 3210 nM.

For `O=C(NNc1nc2ccc(Cl)cc2s1)c1cc(-c2cccs2)nc2ccccc12`, the EC50 was 400 nM.

Regarding `COc1ccc(NC(=O)c2cc([N+](=O)[O-])ccc2O)cc1`, the EC50 is 3920 nM.

With `CCN(CC)c1ccc(/C=N/Nc2nc(C)cc(=O)[nH]2)c(O)c1`, the EC50 was 500 nM.

On to `O=c1ccc(N=Nc2ccccc2)ccc1O`, for which the EC50 was 879 nM.

For the molecule `CC(=O)Oc1c(-c2ccc(Br)o2)oc2ccccc2c1=O`, the EC50 is 4200 nM.

Consider `O=C(Nc1nnc(SCc2ccc(Cl)cc2)s1)c1cnccn1`, for which the EC50 is 1550 nM.

For `Cc1nc(C)c(C(=O)N/N=C/c2cc(Br)ccc2O)s1`, the concentration giving a half-maximal response (EC50) was 2120 nM.

`CCN1/C(=C/C(C)=C/c2sc3ccccc3[n+]2CC)Sc2ccccc21`: the EC50 was < 120 nM.

On to `Clc1ccc(OCCn2ccnc2)c2ccccc12`, for which the EC50 is 2910 nM.

Consider `CC(=O)NC(c1cccs1)c1cc([N+](=O)[O-])c2cccnc2c1O` (stereo not drawn), for which the EC50 was 1080 nM.

In the case of `COc1cnc(-c2ccccn2)nc1Sc1ccccc1Cl`, the EC50 was > 15000 nM (inactive).

These data come from PubChem BioAssay AID2423 (Broad Institute, 2010).
